Laboratory results taken from PubChem BioAssay AID2060356 (Molecular Pharmacology Branch, DTP, NCI, 2025).

Test system: PDC tumor spheroids with HUVEC/MSC, viability
Assay: Anticancer human tumor 439559-082-T-J2-PDC patient-derived colon adenocarcinoma cell line growth inhibition [TAK]
Details: for IC50: curve of first compound; for viability, T/C: stronger effect = lower value
Source text: Combinatorial screen of targeted agents with TAK-243 and ipatasertib in multi-cell type tumor spheroids
A high-throughput screen of multi-cell type tumor spheroids was designed to identify active combinations of targeted small molecules and TAK-243 or ipatasertib. Complex spheroids include a stromal component modeled by human endothelial cells (HUVEC) and fibroblasts modeled by human mesenchymal stem cells (MSCs). The concentration ranges selected for each drug and investigational agent were based upon clinically achievable concentrations if the clinical Cmax of the agent was known.
Compounds. The drugs and investigational agents: TAK-243 (785004), ipatasertib (767898), everolimus (733504), selumetinib (741078), bortezomib (756655), trametinib (758246), ixazomib (758254), vemurafenib (761431), dabrafenib (764134), sapanisertib (764658), alpelisib (765974), and copanlisib (816437), were obtained from the National Cancer Institute (NCI) Developmental Therapeutics Program Chemical Repository. The FDA-approved anticancer drug set is available from the NCI Developmental Therapeutics Program. […] The stock solutions were prepared in dimethyl sulfoxide (DMSO, Sigma-Aldrich, St. Louis, MO, cat. D2650) at 800-fold the tested concentration and stored at -70 degrees C prior to their use. All drugs and investigational agents were tested over a range starting from a high concentration at or near the clinical Cmax and decreasing in half-log increments. If the clinical Cmax for an agent had not been determined, the highest concentration tested was 10 microM.
NCI60 Cell Culture. NCI60 cell lines were obtained from the NCI Developmental Therapeutics Program Tumor Repository. For each lot of cells, the Repository performed Applied Biosystems AmpFLSTR Identifiler testing with PCR amplification to confirm consistency with the published Identifier STR profile for each cell line. Cells were kept in continuous culture for no more than 20 passages. The optimal seeding densities for each of the cell lines at each time point assessed were determined prior to performing the concentration response studies. Briefly, the NCI60 human tumor lines were grown as monolayers in RPMI 1640 medium supplemented with 10% FBS and 2 mmol/L L-glutamine.
An additional 2 lines were from the NCI60 cell line panel including melanomas, MALME-3M and SK-MEL-2. Pooled donor human umbilical vein endothelial cells (HUVEC, Lonza, cat. CC-2519) and human mesenchymal stem cells (hMSC, Lonza, cat. PT-2501) were purchased from Lonza (Walkersville, MD).
PDMR cell lines were grown in complete medium (DC medium): Dulbecco's modified Eagle's medium (DMEM)/F12 supplemented with 5% fetal bovine serum (FBS), 2 mM L-glutamine, 100 U/mL penicillin and 100 µg/ml streptomycin, 0.4 µg/ml hydrocortisone, 10 ng/ml epidermal growth factor (EGF) recombinant human protein, 24 µg/mL adenine, and 0.1 mg/mL primocin. During culture from frozen stock vials, PDMR cells were cultured in the same medium containing 10 µM Y-27632 (see Table 3). The PDCs were cultured in complete DMEM/F12 media without 10 microM Y-27632 dihydrochloride for at least two passages prior to the screen. The pooled donor HUVEC and hMSC were cultured in endothelial cell growth medium 2 (PromoCell, Heidelberg, Germany, cat. C-22011) and mesenchymal stem cell growth medium 2 (PromoCell, cat. C-28009), respectively. For all experiments, HUVEC and hMSC were used at passages </=5.
For the pre-screen, cell seeding densities were determined from a titration spanning the range from 5,000 to 313 cells per well. The mct-spheroids including 60% malignant cells, 25% HUVEC and 15% MSC dispensed as a mixture into U-bottom Ultra-Low Attachment 384-well plates (Corning, NY)
High-throughput Drug Combination Screening.
Prior to their inoculation into 384-well plates, malignant cells, HUVEC, and hMSC were removed from T flasks using TrypLE express (Thermo Fisher Scientific, cat. 12605036) and harvested by centrifugation for 5 min at 233 x g. […]

[1] = second compound 0.3 µM, first compound 0.000316 µM
[2] = second compound 0.3 µM, first compound 0.001 µM
[3] = second compound 0.3 µM, first compound 0.00316 µM
[4] = second compound 0.3 µM, first compound 0.01 µM
[5] = second compound 0.949 µM, first compound 0.000316 µM
[6] = second compound 0.949 µM, first compound 0.001 µM
[7] = second compound 0.949 µM, first compound 0.00316 µM
[8] = second compound 0.949 µM, first compound 0.01 µM
[9] = second compound 3 µM, first compound 0.000316 µM
[10] = second compound 3 µM, first compound 0.001 µM
[11] = second compound 3 µM, first compound 0.00316 µM
[12] = second compound 3 µM, first compound 0.01 µM
[13] = second compound 9.49 µM, first compound 0.000316 µM
[14] = second compound 9.49 µM, first compound 0.001 µM
[15] = second compound 9.49 µM, first compound 0.00316 µM
[16] = second compound 9.49 µM, first compound 0.01 µM
[17] = second compound 30 µM, first compound 0.000316 µM
[18] = second compound 30 µM, first compound 0.001 µM
[19] = second compound 30 µM, first compound 0.00316 µM
[20] = second compound 30 µM, first compound 0.01 µM
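Further: spheroids exposed to drugs for seven days before readout.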

CC(C)CC(NC(=O)C(Cc1ccccc1)NC(=O)c1cnccn1)B(O)O (stereo not given) + CC(C)NCC(C(=O)N1CCN(c2ncnc3c2C(C)CC3O)CC1)c1ccc(Cl)cc1
IC50 (second compound 0.3 µM): > 10 nM
IC50 (second compound 0.949 µM): > 10 nM
IC50 (second compound 3 µM): > 10 nM
IC50 (second compound 9.49 µM): > 10 nM
IC50 (second compound 30 µM): > 10 nM
viability, T/C (second compound 0.3 µM, first compound 31.6 pM): 112%
viability, T/C (second compound 0.3 µM, first compound 0.0001 µM): 94.2%
viability, T/C [1]: 96.6%
viability, T/C [2]: 97.7%
viability, T/C [3]: 97.7%
viability, T/C [4]: 80.3%
viability, T/C (second compound 0.949 µM, first compound 31.6 pM): 105%
viability, T/C (second compound 0.949 µM, first compound 0.0001 µM): 107%
viability, T/C [5]: 92.5%
viability, T/C [6]: 105%
viability, T/C [7]: 93.2%
viability, T/C [8]: 74%
viability, T/C (second compound 3 µM, first compound 31.6 pM): 102%
viability, T/C (second compound 3 µM, first compound 0.0001 µM): 98.2%
viability, T/C [9]: 93%
viability, T/C [10]: 102%
viability, T/C [11]: 89.3%
viability, T/C [12]: 70%
viability, T/C (second compound 9.49 µM, first compound 31.6 pM): 93.3%
viability, T/C (second compound 9.49 µM, first compound 0.0001 µM): 97.6%
viability, T/C [13]: 92.9%
viability, T/C [14]: 84.4%
viability, T/C [15]: 85.5%
viability, T/C [16]: 69.3%
viability, T/C (second compound 30 µM, first compound 31.6 pM): 85.8%
viability, T/C (second compound 30 µM, first compound 0.0001 µM): 98.5%
viability, T/C [17]: 87.3%
viability, T/C [18]: 89.2%
viability, T/C [19]: 86%
viability, T/C [20]: 69.1%

CC(C)CC(NC(=O)CNC(=O)c1cc(Cl)ccc1Cl)B1OC(=O)CC(CC(=O)O)(C(=O)O)O1 (stereo not given) + CC(C)NCC(C(=O)N1CCN(c2ncnc3c2C(C)CC3O)CC1)c1ccc(Cl)cc1
IC50 (second compound 0.3 µM): > 100 nM
IC50 (second compound 0.949 µM): > 100 nM
IC50 (second compound 3 µM): > 100 nM
IC50 (second compound 9.49 µM): > 100 nM
IC50 (second compound 30 µM): > 100 nM
viability, T/C [1]: 98.8%
viability, T/C [2]: 105%
viability, T/C [3]: 96%
viability, T/C [4]: 94.4%
viability, T/C (second compound 0.3 µM, first compound 0.0316 µM): 79.7%
viability, T/C (second compound 0.3 µM, first compound 0.1 µM): 57.7%
viability, T/C [5]: 117%
viability, T/C [6]: 107%
viability, T/C [7]: 102%
viability, T/C [8]: 98.4%
viability, T/C (second compound 0.949 µM, first compound 0.0316 µM): 79.6%
viability, T/C (second compound 0.949 µM, first compound 0.1 µM): 61.1%
viability, T/C [9]: 107%
viability, T/C [10]: 98.8%
viability, T/C [11]: 88.5%
viability, T/C [12]: 98.7%
viability, T/C (second compound 3 µM, first compound 0.0316 µM): 75.5%
viability, T/C (second compound 3 µM, first compound 0.1 µM): 58.4%
viability, T/C [13]: 95.7%
viability, T/C [14]: 96.7%
viability, T/C [15]: 93%
viability, T/C [16]: 89%
viability, T/C (second compound 9.49 µM, first compound 0.0316 µM): 70.4%
viability, T/C (second compound 9.49 µM, first compound 0.1 µM): 56.5%
viability, T/C [17]: 85.7%
viability, T/C [18]: 90.5%
viability, T/C [19]: 87%
viability, T/C [20]: 83.3%
viability, T/C (second compound 30 µM, first compound 0.0316 µM): 75.3%
viability, T/C (second compound 30 µM, first compound 0.1 µM): 57.5%
